Results published in PubChem BioAssay AID2060626 (Molecular Pharmacology Branch, DTP, NCI, 2025).
Blank lines part the entries; values can stand above or below the compound they belong to.

Test system: 168753-222-R-J1-PDC complex spheroid viability
Assay: Anticancer human tumor 168753-222-R-J1-PDC patient-derived bladder carcinoma cell line growth inhibition [CLK]
Details: for IC50: curve of first compound; for viability, T/C: stronger effect = lower value
Outline: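 Multi-cell-type spheroids combined patient-derived tumor cells with HUVEC endothelial cells and human mesenchymal stem cells. Paired agents were dosed in half-log steps down from about clinical Cmax, or from 10 microM where Cmax was unknown.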
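Note: viability measured after seven days of drug exposure.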
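Throughout, for viability, T/C: luminescence signal used as surrogate for viable cell amount; 100% = DMSO vehicle control wells.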

IC50 (second compound 0.0316 µM): > 300 nM
IC50 (second compound 0.1 µM): > 300 nM
IC50 (second compound 0.316 µM): > 300 nM
IC50 (second compound 1 µM): < 0.949 nM
IC50 (second compound 3.16 µM): < 0.949 nM
IC50 (second compound 10 µM): < 0.949 nM
Compound: C=CC(=O)Nc1cc(Nc2nccc(-c3cn(C)c4ccccc34)n2)c(OC)cc1N(C)CCN(C)C + CNC(=O)c1ccc(Nc2nc(OC3CCCC3)c3c(-c4ccc5nc(C)oc5c4)c[nH]c3n2)c(OC)c1
viability, T/C (second compound 0.0316 µM, first compound 0.000949 µM): 122%
viability, T/C (second compound 0.0316 µM, first compound 0.003 µM): 96.3%
viability, T/C (second compound 0.0316 µM, first compound 0.00949 µM): 102%
viability, T/C (second compound 0.0316 µM, first compound 0.03 µM): 102%
viability, T/C (second compound 0.0316 µM, first compound 0.0949 µM): 107%
viability, T/C (second compound 0.0316 µM, first compound 0.3 µM): 103%
viability, T/C (second compound 0.1 µM, first compound 0.000949 µM): 91.1%
viability, T/C (second compound 0.1 µM, first compound 0.003 µM): 87%
viability, T/C (second compound 0.1 µM, first compound 0.00949 µM): 86.7%
viability, T/C (second compound 0.1 µM, first compound 0.03 µM): 76.8%
viability, T/C (second compound 0.1 µM, first compound 0.0949 µM): 91.7%
viability, T/C (second compound 0.1 µM, first compound 0.3 µM): 90.2%
viability, T/C (second compound 0.316 µM, first compound 0.000949 µM): 73.5%
viability, T/C (second compound 0.316 µM, first compound 0.003 µM): 69.6%
viability, T/C (second compound 0.316 µM, first compound 0.00949 µM): 69.3%
viability, T/C (second compound 0.316 µM, first compound 0.03 µM): 63.8%
viability, T/C (second compound 0.316 µM, first compound 0.0949 µM): 71.8%
viability, T/C (second compound 0.316 µM, first compound 0.3 µM): 62.5%
viability, T/C (second compound 1 µM, first compound 0.000949 µM): 37.1%
viability, T/C (second compound 1 µM, first compound 0.003 µM): 39.1%
viability, T/C (second compound 1 µM, first compound 0.00949 µM): 38.5%
viability, T/C (second compound 1 µM, first compound 0.03 µM): 40.8%
viability, T/C (second compound 1 µM, first compound 0.0949 µM): 30.8%
viability, T/C (second compound 1 µM, first compound 0.3 µM): 29%
viability, T/C (second compound 3.16 µM, first compound 0.000949 µM): 18.2%
viability, T/C (second compound 3.16 µM, first compound 0.003 µM): 19.3%
viability, T/C (second compound 3.16 µM, first compound 0.00949 µM): 19.5%
viability, T/C (second compound 3.16 µM, first compound 0.03 µM): 22.8%
viability, T/C (second compound 3.16 µM, first compound 0.0949 µM): 19.6%
viability, T/C (second compound 3.16 µM, first compound 0.3 µM): 16.9%
viability, T/C (second compound 10 µM, first compound 0.000949 µM): 16.3%
viability, T/C (second compound 10 µM, first compound 0.003 µM): 19.8%
viability, T/C (second compound 10 µM, first compound 0.00949 µM): 18.5%
viability, T/C (second compound 10 µM, first compound 0.03 µM): 15.6%
viability, T/C (second compound 10 µM, first compound 0.0949 µM): 19.1%
viability, T/C (second compound 10 µM, first compound 0.3 µM): 15.6%

IC50 (second compound 0.0316 µM): 6520 nM
IC50 (second compound 0.1 µM): 5810 nM
IC50 (second compound 0.316 µM): 4580 nM
IC50 (second compound 1 µM): 45.8 nM
IC50 (second compound 3.16 µM): < 31.6 nM
IC50 (second compound 10 µM): < 31.6 nM
Compound: CC1(C)CCC(CN2CCN(c3ccc(C(=O)NS(=O)(=O)c4ccc(NCC5CCOCC5)c([N+](=O)[O-])c4)c(Oc4cnc5[nH]ccc5c4)c3)CC2)=C(c2ccc(Cl)cc2)C1 + CNC(=O)c1ccc(Nc2nc(OC3CCCC3)c3c(-c4ccc5nc(C)oc5c4)c[nH]c3n2)c(OC)c1
viability, T/C (second compound 0.0316 µM, first compound 0.0316 µM): 109%
viability, T/C (second compound 0.0316 µM, first compound 0.1 µM): 112%
viability, T/C (second compound 0.0316 µM, first compound 0.316 µM): 104%
viability, T/C (second compound 0.0316 µM, first compound 1 µM): 109%
viability, T/C (second compound 0.0316 µM, first compound 3.16 µM): 97%
viability, T/C (second compound 0.0316 µM, first compound 10 µM): 22%
viability, T/C (second compound 0.1 µM, first compound 0.0316 µM): 99.7%
viability, T/C (second compound 0.1 µM, first compound 0.1 µM): 99.5%
viability, T/C (second compound 0.1 µM, first compound 0.316 µM): 101%
viability, T/C (second compound 0.1 µM, first compound 1 µM): 95.7%
viability, T/C (second compound 0.1 µM, first compound 3.16 µM): 90.2%
viability, T/C (second compound 0.1 µM, first compound 10 µM): 14%
viability, T/C (second compound 0.316 µM, first compound 0.0316 µM): 75.2%
viability, T/C (second compound 0.316 µM, first compound 0.1 µM): 77%
viability, T/C (second compound 0.316 µM, first compound 0.316 µM): 79.6%
viability, T/C (second compound 0.316 µM, first compound 1 µM): 80.3%
viability, T/C (second compound 0.316 µM, first compound 3.16 µM): 66.7%
viability, T/C (second compound 0.316 µM, first compound 10 µM): 12.6%
viability, T/C (second compound 1 µM, first compound 0.0316 µM): 50.4%
viability, T/C (second compound 1 µM, first compound 0.1 µM): 49.5%
viability, T/C (second compound 1 µM, first compound 0.316 µM): 38.4%
viability, T/C (second compound 1 µM, first compound 1 µM): 25.9%
viability, T/C (second compound 1 µM, first compound 3.16 µM): 27.2%
viability, T/C (second compound 1 µM, first compound 10 µM): 13.8%
viability, T/C (second compound 3.16 µM, first compound 0.0316 µM): 23.3%
viability, T/C (second compound 3.16 µM, first compound 0.1 µM): 23.1%
viability, T/C (second compound 3.16 µM, first compound 0.316 µM): 19.5%
viability, T/C (second compound 3.16 µM, first compound 1 µM): 20%
viability, T/C (second compound 3.16 µM, first compound 3.16 µM): 17.6%
viability, T/C (second compound 3.16 µM, first compound 10 µM): 23.9%
viability, T/C (second compound 10 µM, first compound 0.0316 µM): 18.1%
viability, T/C (second compound 10 µM, first compound 0.1 µM): 17.3%
viability, T/C (second compound 10 µM, first compound 0.316 µM): 17.6%
viability, T/C (second compound 10 µM, first compound 1 µM): 17.3%
viability, T/C (second compound 10 µM, first compound 3.16 µM): 15.8%
viability, T/C (second compound 10 µM, first compound 10 µM): 20.4%
